Values joined by “and” are separate entries in the source; they are usually repeats but may differ in a detail not shown here. Equal entries are not always repeated. Where two headings read alike, the source gives them in different places.
Experiments:
[1] = tested on: passive cutaneous anaphylaxis reaction (PCA reaction); assay: Passive cutaneous anaphylaxis reaction (PCA reaction), intravenous, rats; assay type: in vivo, Male Lister-Hooded rats; details: for ED50: Rattus norvegicus, iv
Procedure: (§1) The antiallergic activity of the compounds of the present invention was determined by a passive cutaneous anaphylaxis reaction (PCA reaction) which was conducted as described in Life Sciences, 1, p. 465 (1963) and Immunology, 12, p. 113 (1967) both of which are incorporated herein by reference. Male Lister-Hooded rats were depilated and injected intradermally with a dilution of rat serum containing IgE antibody against ovalbumin. Twenty-four hours later the rats were challenged with an intravenous injection of the antigen (ovalbumin) and a blue indicator dye. The intensity of the passive cutaneous anaphylactic reaction was determined by observing the size of discrete blue sites (from the indicator) on the backs of the rats. Simultaneous with the challenge, one group of the rats was injected (intravenously) with various concentrations of test compounds (i.e., compounds of formula I), in order to determine the 50 percent inhibitory concentration (IC50) for each of said compounds tested. The other group of rats was administered intravenous sodium cromoglycate (SCG), a known antiallergic agent and thus served as a positive control. The results of this test are set forth in Table 1 where the IC50 for the test compounds and SCG are expressed irn micromoles per kiligram of body weight.

PCA reaction = assay: Oral activity in PCA reaction (intragastric dose), rats; assay type: in vivo, Male Lister-Hooded rats; details: 30 mg/kg intragastrically, thirty minutes prior to antigen challenge, relative to control; for inhibition at 30 mg/kg: Rattus norvegicus, po, read-out: Percent Inhibition of PCA Reaction
Procedure: as §1
Following substantially the same technique as described above, the oral activity of various test compounds (i.e., compounds of formula I) was determined. Thirty minutes prior to the antigen challenge described above, a dose of 30 mg/kg of one of the test compounds was administered intragastrically and the percent inhibition of the percutaneous anaphylactic reaction was determined (as compared to control animals where no test compound was administered). The results of this test are set forth in Table 2 and are expressed as percent inhibition of anaphylaxis relative to control.

mast cells = assay: Inhibition of antigen-induced histamine (spasmogen) release from passively sensitized peritoneal mast cells; assay type: cell-based, rats
Procedure: Peritoneal mast cells passively sensitized to antigen (dinitrophenyl-ovalbumin) 24 hours previously were obtained by lavage. Pools of cells were prepared from ten or more rats and aliquots (100 μl) were dispensed into polyethylene tubes. To each tube was added one of the test compounds at a concentration shown in Table 3 together with a constant dose (1 μg) of antigen (dinitrophenyl-bovine serum albumin). Each treatment was repeated in at least three tubes. All of the tubes were incubated at 37° C. for 10 minutes. The mast cells were sedimented by centrifugation and the supernatant fluid removed. The concentration of histamine released as a result of the addition of antigen was determined fluorimetrically and comparisons made with the concentration of histamine released in the absence of drug using the formula: [formula] where d=histamine release in presence of test compound,
a=histamine release in presence of antigen along
s=histamine release in presence of saline or drug vehicle (i.e., control).
The results of this test are set forth in Table 3 and are expressed as a percent inhibition of spasmogen release for each concentration (in moles) of the test compound utilized in the above-described procedure.

[2] = simultaneous with antigen (ovalbumin) challenge, per kilogram of body weight, read-out: INHIBITION OF PCA REACTION IC50, Compound of Example No.

Row | SMILES | ED50 [1, 2] [µmol/kg] | inhibition at 30 mg/kg (PCA reaction) [%] | Percent Inhibition of Mast Cell Histamine Release (mast cells; 10^-2 (moles)) [%] | Percent Inhibition of Mast Cell Histamine Release (mast cells; 10^-3 (moles)) [%] | Percent Inhibition of Mast Cell Histamine Release (mast cells; 10^-4 (moles)) [%] | Percent Inhibition of Mast Cell Histamine Release (mast cells; 10^-5 (moles)) [%] | Percent Inhibition of Mast Cell Histamine Release (mast cells; 10^-6 (moles)) [%] | further results
1 | Cc1oc2cccc(NC(=O)C(=O)O)c2c(=O)c1C [IV, Sodium 2,3-dimethylchromone-5-oxamate] | 5 | 39 | – | – | – | – | – | –
2 | CCC1CCc2oc3cccc(NC(=O)C(=O)O)c3c(=O)c2C1 (stereo not shown) [II, Sodium 2,3-(4'-ethylcyclohexeno)chromone-5-oxamate] | 15.5 | 46 | – | – | – | – | – | –
3 | O=C(O)C(=O)Nc1cccc2oc3c(c(=O)c12)CCCC3 [2,3cyclohexenochromone-5-oxamic acid, 2,3-cyclohexenochromone-5-oxamic acid] | – | – | – | – | – | – | – | INHIBITION OF PCA REACTION IC50, Compound of Example No. ([1]; intravenous, simultaneous with antigen (ovalbumin) challenge, per kilogram of body weight, listed as 2,3cyclohexeneochromone-5-oxamic acid): 11.2 micromoles/kilogram
4 | O=C(O)C(=O)Nc1cccc2oc3c(c(=O)c12)CCCC3 [Example I, Sodium 2,3-cyclohexenochromone-5-oxamate] | 10.4 | 27 | 85.7 | 78.6 | 10.9 | 12.6 | 12.0 | –
5 | CCCc1c2c(c(O)c3c(=O)cc(C(=O)O)oc13)CCCC2 [proxicromil, reference compound] | – | – | – | – | – | – | – | Percent Inhibition of PCA Reaction (PCA reaction): ten
6 | O=C1c2ccccc2S(=O)(=O)c2cc(-c3nnn[nH]3)ccc21 [doxantrazole, reference compound] | – | – | – | – | – | – | – | Percent Inhibition of PCA Reaction (PCA reaction): ten
7 | CC1(C)CCC2=C(C1)C(=O)c1c(NC(=O)C(=O)O)cccc1S2(=O)=O [Example VI, Sodium 2,3-(4',4'-dimethylcyclohexeno)thiochromone-5-oxamate-1,1-dioxide] | 16.5 | 27 | 95.1 | 86.9 | 44.1 | 3.7 | 4.4 | –
8 | CC1(C)CCc2sc3cccc(NC(=O)C(=O)O)c3c(=O)c2C1 [Example V, Sodium 2,3-(4',4'-dimethylcyclohexeno)thiochromone-5-oxamate] | 10 | 14 | 96.7 | 74.8 | 40.8 | 2.7 | 38.7 | –
9 | O=C(O)c1cc(=O)c2c(OCC(O)COc3cccc4oc(C(=O)O)cc(=O)c34)cccc2o1 [SCG, sodium cromoglycate, reference compound] | – | – | – | – | – | – | – | ED50 ([1]; intravenous sodium cromoglycate positive control, run alongside each test compound, read-out: INHIBITION OF PCA REACTION IC50, SCG): 3.6 µmol/kg; INHIBITION OF PCA REACTION IC50, SCG ([1]; intravenous sodium cromoglycate positive control, run alongside each test compound): 2.1 micromoles/kilogram and 1.8 micromoles/kilogram and 2.4 micromoles/kilogram
10 | CC1(C)CCc2oc3cccc(NC(=O)C(=O)O)c3c(=O)c2C1 [III, Sodium 2,3-(4',4'-dimethylcyclohexeno)chromone-5-oxamate] | 9.6 | 60 | 92.9 | 95.1 | 57.6 | 10.6 | 8.2 | –

— patent publication US4571405A, “Anti-allergic chromone- or thiochromone-5-oxamic acid derivatives, compositions, and method of use therefor” (Miles Laboratories, Inc., priority 1984, dated 1986)
